pIC50: −log10 of the molar value.
Legend:
LCK = biological target: T1, LCK (Homo sapiens, UniProt P06239); assay: LCK inhibition, FRET based Z'-LYTE Kinase Assay; format: biochemical; settings: 25 nM LCK, 180 μM ATP; read-out: IC50 Range Lck
T1 construct: purchased Invitrogen P3043
Description: FLT3 and LCK compound inhibition were determined using FRET based Z′-LYTE Kinase Assay Kit with Tyrosine 2 peptide as the substrate (Invitrogen cat #PV3191). […] The % inhibition values were determined according to the manufacturer's directions and IC50 values were obtained using a non-linear 4 point logistic curve fit (XLfit4, IDBS).

[1] = test system: SLP-76 serine 376 phosphorylation in α-CD3 stimulated Jurkat E6.1 cells; assay: In vitro phosphorylation assay, SLP-76 Ser376 (immunoblot); format: cell-based; settings: Homo sapiens, 4 h pretreatment, substantive = >75% inhibition as estimated by immunoblot analysis, read-out: SLP76 S376 Phosphorylation Onset-Substantive* Inhibition
Description: (§1) Jurkat E6.1 cells were obtained from American Type Culture Collection (ATCC, Manassas, Va.), and maintained according to the supplier's instructions. Cells were washed three times and starved in RPMI 1640 medium supplemented with 0.5% fetal calf serum for 18 h at 37° C. Serum starved cells were pretreated with the indicated concentration of inhibitor for 4 hours before stimulation with 10 μg/ml α-CD3 antibody (BioLegend, Inc., San Diego, Calif.) for 10 min at 37° C. The cells were washed once in phosphate-buffered saline (pH 7.4) containing 10 mm sodium pyrophosphate, 10 mm sodium fluoride, 10 mm EDTA, and 1 mm sodium orthovanadate. Protein lysates were prepared using ice-cold radioimmunoprecipitation assay (RIPA) lysis buffer. A total of 100 μg of cell lysate was loaded onto Bis-Tris gels (Life Technologies, Carlsbad, Calif.) with full-range molecular weight marker as a size reference, and resolved by SDS-PAGE electrophoresis. Proteins were transferred to PVDF membrane (Millipore, Billerica, Mass.), blocked and probed with antibodies for phospho-SLP-76 (Ser376) (rabbit polyclonal #13177; Cell Signaling Technology Inc., Danvers, Mass.), SLP-76 (rabbit polyclonal #4958; Cell Signaling Technology Inc., Danvers, Mass.), phospho-ERK (mouse monoclonal sc-7383; Santa Cruz Biotechnology Inc., Santa Cruz, Calif.) and ERK1/2 (rabbit polyclonal 06-182; Millipore, Billerica, Mass.). Secondary antibodies were diluted 1 in 15,000 and incubated for 1 h at rt. Protein bands were visualized and quantified using Odyssey near infrared imager (LI-COR, Lincoln, Nebr.).
(§2) Table 2 below lists effects of representative compounds of the present invention against SLP-76 serine 376 phosphorylation and ERK1/2 T202/Y204 phosphorylation in α-CD3 stimulated Jurkat E6.1 cells.

[2] = test system: ERK1/2 T202/Y204 phosphorylation in α-CD3 stimulated Jurkat E6.1 cells; assay: In vitro phosphorylation assay, ERK1/2 T202/Y204 (immunoblot); format: cell-based; settings: Homo sapiens, 4 h pretreatment, read-out: ERK1/2 T202/Y204 Phosphorylation Onset Inhibition
Description: as §1, §2

T1 sequence (P06239 whole entry, species assumed): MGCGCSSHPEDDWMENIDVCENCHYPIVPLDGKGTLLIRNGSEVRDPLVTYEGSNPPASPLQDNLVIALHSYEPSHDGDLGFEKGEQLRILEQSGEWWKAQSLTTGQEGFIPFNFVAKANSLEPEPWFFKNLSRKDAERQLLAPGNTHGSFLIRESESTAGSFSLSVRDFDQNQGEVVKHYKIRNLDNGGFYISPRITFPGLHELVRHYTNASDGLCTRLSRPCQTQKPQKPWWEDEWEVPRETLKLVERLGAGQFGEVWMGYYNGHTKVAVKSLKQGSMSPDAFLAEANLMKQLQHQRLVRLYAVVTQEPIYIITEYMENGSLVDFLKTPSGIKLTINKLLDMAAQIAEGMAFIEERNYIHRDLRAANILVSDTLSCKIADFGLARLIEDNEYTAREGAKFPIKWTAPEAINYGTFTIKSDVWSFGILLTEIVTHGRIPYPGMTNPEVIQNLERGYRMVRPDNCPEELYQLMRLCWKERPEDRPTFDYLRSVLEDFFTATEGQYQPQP

CN1CCN(c2ccc3nc(-c4c(N)c5ccsc5[nH]c4=O)[nH]c3c2)CC1 [Example A1, 4-amino-5-(6-(4-methylpiperazin-1-yl)-1H-benzo[d]imidazol-2-yl)thieno[2,3-b]pyridin-6(7H)-one]
pIC50 (LCK): 6.30 to 7.30
IC75 [1]: 300 to 1000 nM
minimal effective concentration [2]: > 3 µM

Source: patent US11059832B2, “HPK1 inhibitors and methods of using same” (University Health Network, priority 2015, dated 2021)
